# System: CD19+K562 cells
# Experiment: Cytokine release by antiFL CAR T cells with hapten-labeled cells
# Assay type: cell-based
# Details: trend; hapten-labeled cells prepared with 5 μM FL-DHPE
# Experimental: Hapten-labeled cells were prepared. CD19+K562 cells were incubated either overnight with 5 μM FL-DHPE or for 20 min with an CD19 antibody labeled with FITC. The hapten-labeled cells were incubated with either one of two antiFL CAR T cells (FITC-E2 scFv, or 4M5.3 scFv). […] Hudecek M, et al., (2013) Clin Cancer Res. 19:3153-64, which is incorporated by reference in its entirety.
# The levels of cytokines released by the antiFL CAR T cells were determined. […] The levels of released IFN-γ, and TNF-α were lower for hapten-labeled cells contacted with the antiFL(4M5.3) CAR T cell.
structure (smiles),measurement,value
"CCCCCCCCCCCCCCCC(=O)OCC(COP(=O)(O)OCCNC(=S)Nc1ccc2c(c1)C(=O)OC21c2ccc(O)cc2Oc2cc(O)ccc21)OC(=O)CCCCCCCCCCCCCCC (stereo not shown) [FL-DHPE, N-(Fluorescein-5-Thiocarbamoyl)-1,2-Dihexadecanoyl-sn-Glycero-3-Phosphoethanolamine]","cytokine release induced, compared to cells prepared with CD19 antibody labeled with FITC",higher levels of cytokine release

# Source: patent publication US20230172981A1, “METHODS AND COMPOSITIONS FOR STIMULATION OF CHIMERIC ANTIGEN RECEPTOR T CELLS WITH HAPTEN LABELLED CELLS” (Seattle Children's Hospital (dba Seattle Children's …, priority 2020, published 2023)
